# Reference: ChEMBL document CHEMBL1201862, “PubChem BioAssay data set” (2004)
# Calls of active or inactive are those of the source.
# Key:
# [1] = target: T1, Delta-type opioid receptor (Homo sapiens, UniProt P41143); assay: HTS Image-Based Screen for Antagonists of the DOR Receptor. [Related pubchem assays (depositor defined):AID1777, AID1785, AID1786, AID2133]; format: functional
# [2] = target: Mu-type opioid receptor (Homo sapiens, UniProt P35372); assay: HTS Image-Based Screen for Agonists of the MOR Receptor. [Related pubchem assays (depositor defined):AID1777, AID1785, AID1786, AID2133]; format: functional;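 further: imaging of beta-arrestin GFP recruitment into spots after receptor activation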
# [3] = target: T1, Delta-type opioid receptor; assay: HTS Image-Based Screen for Agonists of the DOR Receptor. [Related pubchem assays (depositor defined):AID1777, AID1786, AID2133]; format: functional
# [4] = target: T2, Kappa-type opioid receptor (Homo sapiens, UniProt P41145); format: functional
# [5] = target: Beta-galactosidase (Escherichia coli, UniProt Q8VNN2); format: functional
# [6] = target: T2, Kappa-type opioid receptor; format: functional; remark: listed apart in the source
# [7] = target: T3, Short transient receptor potential channel 4 (Mus musculus, UniProt Q9QUQ5); assay: block of DAMGO-driven TRPC4 calcium entry – cell-based, HEK293 TRPC4/mu-opioid, Fluo-4 calcium, dose response (AID 434942); format: functional;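 further: potency of inhibitors blocking the TRPC4 calcium response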
# T3 sequence (Q9QUQ5 whole entry): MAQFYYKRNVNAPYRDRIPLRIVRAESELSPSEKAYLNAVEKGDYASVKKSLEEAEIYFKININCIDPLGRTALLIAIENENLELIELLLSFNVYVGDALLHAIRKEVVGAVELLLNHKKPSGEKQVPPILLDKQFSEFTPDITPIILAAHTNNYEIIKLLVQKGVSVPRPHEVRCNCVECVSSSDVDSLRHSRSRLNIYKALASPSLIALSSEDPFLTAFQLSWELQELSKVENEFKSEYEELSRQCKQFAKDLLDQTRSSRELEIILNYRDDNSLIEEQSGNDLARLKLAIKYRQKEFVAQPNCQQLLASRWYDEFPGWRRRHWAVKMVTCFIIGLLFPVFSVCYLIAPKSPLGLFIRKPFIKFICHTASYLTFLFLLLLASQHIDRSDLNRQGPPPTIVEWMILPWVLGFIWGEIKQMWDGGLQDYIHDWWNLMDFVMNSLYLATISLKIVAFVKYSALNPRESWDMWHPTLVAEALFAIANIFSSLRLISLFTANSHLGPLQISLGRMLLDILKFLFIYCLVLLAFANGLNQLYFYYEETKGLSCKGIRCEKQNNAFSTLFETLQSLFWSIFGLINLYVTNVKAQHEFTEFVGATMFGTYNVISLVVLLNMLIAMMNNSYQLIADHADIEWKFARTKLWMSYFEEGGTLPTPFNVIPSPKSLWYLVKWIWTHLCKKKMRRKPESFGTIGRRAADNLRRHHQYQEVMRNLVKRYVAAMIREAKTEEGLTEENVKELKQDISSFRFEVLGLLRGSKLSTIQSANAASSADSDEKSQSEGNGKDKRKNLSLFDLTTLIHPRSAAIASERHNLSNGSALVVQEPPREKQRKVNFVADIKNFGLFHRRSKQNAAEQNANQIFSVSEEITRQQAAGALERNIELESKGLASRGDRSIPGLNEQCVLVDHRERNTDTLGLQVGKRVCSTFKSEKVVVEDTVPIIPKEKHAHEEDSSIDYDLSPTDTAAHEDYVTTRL
# [8] = target: T4, Protein skinhead-1 (Caenorhabditis elegans, UniProt P34707); format: functional
# T4 sequence (P34707 whole entry): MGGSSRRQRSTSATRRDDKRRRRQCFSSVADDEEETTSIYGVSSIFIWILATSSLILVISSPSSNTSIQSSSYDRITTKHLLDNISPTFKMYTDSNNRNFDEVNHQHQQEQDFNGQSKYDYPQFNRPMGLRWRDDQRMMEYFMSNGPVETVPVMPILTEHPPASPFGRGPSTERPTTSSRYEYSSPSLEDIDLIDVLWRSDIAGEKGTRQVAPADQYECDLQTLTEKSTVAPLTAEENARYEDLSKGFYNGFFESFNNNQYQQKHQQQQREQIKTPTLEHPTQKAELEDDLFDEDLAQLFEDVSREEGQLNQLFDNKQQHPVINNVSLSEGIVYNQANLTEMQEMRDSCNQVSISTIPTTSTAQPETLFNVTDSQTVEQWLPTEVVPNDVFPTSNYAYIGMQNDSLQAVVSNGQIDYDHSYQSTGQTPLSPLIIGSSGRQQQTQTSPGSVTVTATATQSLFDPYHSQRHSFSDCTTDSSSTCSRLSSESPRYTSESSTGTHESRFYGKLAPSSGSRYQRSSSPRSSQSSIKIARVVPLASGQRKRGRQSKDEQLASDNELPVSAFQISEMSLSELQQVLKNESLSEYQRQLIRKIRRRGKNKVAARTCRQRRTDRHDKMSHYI
# [9] = target: UDP-galactopyranose mutase (Mycobacterium tuberculosis, UniProt P9WIQ1); assay: Inhibitors of Mycobacterium tuberculosis UDP-galactopyranose mutase (UGM) enzyme Measured in Biochemical System Using Plate Reader - 2105-02_Inhibitor_Dose_CherryPick_Activity. [Related pubchem assays (depositor defined):AID504439]
# [10] = target: Keap1/Nrf2 (Homo sapiens, UniProt Q14145); assay: disruptors of Keap1 binding to Nrf2 peptide – biochemical, fluorescence polarization, cherry-picked samples, dose response (AID 588683)
# [11] = test system: HeLa; assay: ATP-based viability loss in HeLa cells – cell-based, CellTiter-Glo luminescence, cherry-pick samples, cytotoxicity control for MITF activator project, dose response (AID 540259); format: functional; settings: Homo sapiens
# [12] = test system: Vero; assay: cells; format: functional, cell-based; settings: Chlorocebus sabaeus
# [13] = test system: Vero; assay: cells; format: functional; settings: Chlorocebus sabaeus
# [14] = Luminescence Cell-Based Dose Retest to Confirm Inhibitors of Cancer Stem Cells. [Related pubchem assays (depositor defined):AID2717, AID2721]; format: functional; settings: Homo sapiens
# [15] = target: ORF 73 (Human herpesvirus 8, UniProt O40947); assay: KSHV LANA DNA-binding disruption – biochemical, fluorescence polarization, cherry-picked samples, dose response (AID 504725); set-up: species or system Human gammaherpesvirus 8;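 further: fluorescence polarization of a labeled DNA duplex reporting LANA DNA binding; potency is for inhibitors that block LANA binding to the DNA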
# [16] = cells; settings: HEK293
# [17] = test system: BJ; assay: BJ-TERT fibroblast viability loss – cell-based, RAS-independent, luminescence, dose response (AID 1933); format: functional; settings: Homo sapiens
# [18] = test system: BJ; assay: cells; format: functional, cell-based; settings: Homo sapiens
# [19] = test system: BJ; assay: BJ-TERT-LT-ST fibroblast viability loss – cell-based, RAS-independent, luminescence, dose response (AID 1935); format: functional; settings: Homo sapiens;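 further: BJ fibroblasts immortalized with TERT plus LT and ST oncogenes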
# [20] = DRD fibroblast viability loss – cell-based, non-viral oncogenic, luminescence, dose response (AID 1934); format: functional; settings: Homo sapiens
# [21] = test system: BJ; assay: growth inhibition of engineered Ras-driven BJ cells – cell-based, alamar blue fluorescence, cherrypicked samples, dose response (AID 2631); format: functional; settings: Homo sapiens;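 further: confirmatory dose-response assay in RAS-dependent BJ fibroblasts engineered with TERT, LT and ST, with cytotoxicity read by fluorescence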
# [22] = target: T5, Mannose-6-phosphate isomerase (Homo sapiens, UniProt P34949); assay: phosphomannose isomerase inhibition – biochemical, fluorescence intensity, confirmation (AID 1535)
# T5 sequence (P34949 whole entry): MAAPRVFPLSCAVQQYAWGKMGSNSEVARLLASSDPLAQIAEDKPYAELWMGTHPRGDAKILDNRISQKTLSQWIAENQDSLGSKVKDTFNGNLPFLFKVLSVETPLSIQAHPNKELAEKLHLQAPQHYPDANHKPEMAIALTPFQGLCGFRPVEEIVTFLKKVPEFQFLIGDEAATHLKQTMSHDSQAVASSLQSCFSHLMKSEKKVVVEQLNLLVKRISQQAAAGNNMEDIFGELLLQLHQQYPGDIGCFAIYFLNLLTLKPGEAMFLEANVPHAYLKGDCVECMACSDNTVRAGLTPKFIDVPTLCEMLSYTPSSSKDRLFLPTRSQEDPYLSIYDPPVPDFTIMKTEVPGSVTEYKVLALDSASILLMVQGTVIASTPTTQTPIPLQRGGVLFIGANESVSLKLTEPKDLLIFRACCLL
# [23] = target: Phosphomannomutase 2 (Homo sapiens, UniProt O15305); assay: Counter screen SAR assay for PMM2 inhibitors via a fluorescence intensity assay. [Related pubchem assays (depositor defined):AID1545, AID1574]
# [24] = target: T6, Endoribonuclease toxin MazF (Escherichia coli K-12, UniProt P0AE70); assay: activation of MazEF endoribonuclease cleavage – biochemical, fluorescence, single-stranded RNA substrate, uHTS hits, dose response (AID 588481); format: functional
# T6 sequence (P0AE70 whole entry): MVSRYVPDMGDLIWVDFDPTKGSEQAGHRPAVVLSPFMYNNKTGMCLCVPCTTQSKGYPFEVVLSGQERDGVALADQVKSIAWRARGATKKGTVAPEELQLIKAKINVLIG
# [25] = test system: INS1; assay: INS-1E survival protection against cytokine death – cell-based, luminescence, retest, dose response (AID 449756); format: functional; settings: Rattus norvegicus;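 further: cell death triggered by IL-1 beta plus TNF-alpha plus IFN-gamma mixture; protective hits raise ATP signal compared with cytokine alone wells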
# [26] = target: T6, Endoribonuclease toxin MazF; assay: substrate-only fluorescence increase artefacts – biochemical, single-stranded RNase substrate, counter-screen for MazEF activator project, dose response (AID 588502); format: functional
# Phosphomannomutase 2, sequence (O15305 whole entry): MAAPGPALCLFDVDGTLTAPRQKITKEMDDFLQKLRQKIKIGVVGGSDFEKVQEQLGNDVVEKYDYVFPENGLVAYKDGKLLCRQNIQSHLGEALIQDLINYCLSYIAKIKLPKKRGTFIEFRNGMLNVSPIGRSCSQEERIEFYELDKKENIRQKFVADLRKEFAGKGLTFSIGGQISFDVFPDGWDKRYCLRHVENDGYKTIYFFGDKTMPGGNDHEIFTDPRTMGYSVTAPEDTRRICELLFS
# UDP-galactopyranose mutase, sequence (P9WIQ1 whole entry): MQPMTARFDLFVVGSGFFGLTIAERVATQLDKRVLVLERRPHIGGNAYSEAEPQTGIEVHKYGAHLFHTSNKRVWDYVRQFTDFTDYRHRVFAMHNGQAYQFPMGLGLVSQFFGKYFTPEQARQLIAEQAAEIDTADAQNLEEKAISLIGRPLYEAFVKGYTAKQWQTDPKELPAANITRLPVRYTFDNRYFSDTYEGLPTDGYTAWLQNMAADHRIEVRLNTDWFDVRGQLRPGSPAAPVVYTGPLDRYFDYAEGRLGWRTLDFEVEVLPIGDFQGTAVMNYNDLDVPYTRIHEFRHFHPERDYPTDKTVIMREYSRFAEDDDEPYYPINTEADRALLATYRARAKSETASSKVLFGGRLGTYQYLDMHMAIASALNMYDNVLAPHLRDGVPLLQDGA
# T1 sequence (P41143 whole entry): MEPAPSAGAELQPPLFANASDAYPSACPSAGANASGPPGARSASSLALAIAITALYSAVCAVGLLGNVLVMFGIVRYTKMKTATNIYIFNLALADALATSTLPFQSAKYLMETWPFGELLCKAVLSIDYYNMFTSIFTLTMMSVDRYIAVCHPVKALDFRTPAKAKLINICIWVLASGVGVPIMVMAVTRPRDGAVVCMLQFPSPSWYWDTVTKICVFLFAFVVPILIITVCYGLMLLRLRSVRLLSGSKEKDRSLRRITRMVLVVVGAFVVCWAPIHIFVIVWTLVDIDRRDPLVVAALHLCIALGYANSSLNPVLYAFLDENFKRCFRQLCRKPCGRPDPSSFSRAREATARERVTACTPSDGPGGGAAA
# Keap1/Nrf2, sequence (Q16236 whole entry): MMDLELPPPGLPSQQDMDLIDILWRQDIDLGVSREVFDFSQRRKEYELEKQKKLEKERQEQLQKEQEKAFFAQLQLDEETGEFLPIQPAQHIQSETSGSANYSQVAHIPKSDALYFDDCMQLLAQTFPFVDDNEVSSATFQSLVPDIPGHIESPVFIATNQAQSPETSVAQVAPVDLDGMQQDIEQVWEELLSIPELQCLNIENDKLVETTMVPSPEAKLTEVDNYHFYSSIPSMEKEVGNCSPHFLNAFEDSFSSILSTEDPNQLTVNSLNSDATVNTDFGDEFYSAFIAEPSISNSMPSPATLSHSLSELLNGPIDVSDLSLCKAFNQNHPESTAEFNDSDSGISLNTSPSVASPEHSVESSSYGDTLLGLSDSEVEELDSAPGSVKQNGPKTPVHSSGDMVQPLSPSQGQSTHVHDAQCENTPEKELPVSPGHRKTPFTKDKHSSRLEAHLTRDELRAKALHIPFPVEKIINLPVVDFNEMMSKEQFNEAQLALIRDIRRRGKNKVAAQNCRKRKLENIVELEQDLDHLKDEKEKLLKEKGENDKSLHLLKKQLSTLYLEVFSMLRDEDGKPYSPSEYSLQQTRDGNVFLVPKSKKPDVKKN
# Keap1/Nrf2, sequence (Q14145 whole entry): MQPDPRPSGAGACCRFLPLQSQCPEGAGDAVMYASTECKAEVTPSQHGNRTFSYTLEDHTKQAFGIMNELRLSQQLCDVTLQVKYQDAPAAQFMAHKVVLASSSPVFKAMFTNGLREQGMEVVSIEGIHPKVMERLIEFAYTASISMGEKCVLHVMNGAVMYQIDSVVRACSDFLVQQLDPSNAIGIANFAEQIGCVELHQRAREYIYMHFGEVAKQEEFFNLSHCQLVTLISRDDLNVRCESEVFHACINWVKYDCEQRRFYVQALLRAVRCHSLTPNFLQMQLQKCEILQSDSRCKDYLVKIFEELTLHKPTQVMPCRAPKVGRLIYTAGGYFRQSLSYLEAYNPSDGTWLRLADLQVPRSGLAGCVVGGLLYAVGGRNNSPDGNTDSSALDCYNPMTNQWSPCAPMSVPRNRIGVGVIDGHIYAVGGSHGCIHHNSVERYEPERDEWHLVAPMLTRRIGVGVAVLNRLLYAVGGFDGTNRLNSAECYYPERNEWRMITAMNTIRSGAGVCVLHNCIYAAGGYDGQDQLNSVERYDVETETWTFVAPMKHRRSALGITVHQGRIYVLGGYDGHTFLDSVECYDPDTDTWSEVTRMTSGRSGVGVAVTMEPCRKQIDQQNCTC
# T2 sequence (P41145 whole entry): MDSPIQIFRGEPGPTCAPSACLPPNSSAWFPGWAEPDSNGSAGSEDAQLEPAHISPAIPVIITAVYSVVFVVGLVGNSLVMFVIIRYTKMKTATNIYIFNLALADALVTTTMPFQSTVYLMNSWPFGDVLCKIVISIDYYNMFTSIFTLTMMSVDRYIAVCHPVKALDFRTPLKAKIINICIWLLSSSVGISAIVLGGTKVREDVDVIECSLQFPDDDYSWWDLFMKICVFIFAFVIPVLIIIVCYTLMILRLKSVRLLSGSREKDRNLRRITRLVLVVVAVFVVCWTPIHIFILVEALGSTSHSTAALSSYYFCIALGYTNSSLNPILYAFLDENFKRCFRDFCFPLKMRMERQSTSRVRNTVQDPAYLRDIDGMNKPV
# ORF 73, sequence (O40947 whole entry): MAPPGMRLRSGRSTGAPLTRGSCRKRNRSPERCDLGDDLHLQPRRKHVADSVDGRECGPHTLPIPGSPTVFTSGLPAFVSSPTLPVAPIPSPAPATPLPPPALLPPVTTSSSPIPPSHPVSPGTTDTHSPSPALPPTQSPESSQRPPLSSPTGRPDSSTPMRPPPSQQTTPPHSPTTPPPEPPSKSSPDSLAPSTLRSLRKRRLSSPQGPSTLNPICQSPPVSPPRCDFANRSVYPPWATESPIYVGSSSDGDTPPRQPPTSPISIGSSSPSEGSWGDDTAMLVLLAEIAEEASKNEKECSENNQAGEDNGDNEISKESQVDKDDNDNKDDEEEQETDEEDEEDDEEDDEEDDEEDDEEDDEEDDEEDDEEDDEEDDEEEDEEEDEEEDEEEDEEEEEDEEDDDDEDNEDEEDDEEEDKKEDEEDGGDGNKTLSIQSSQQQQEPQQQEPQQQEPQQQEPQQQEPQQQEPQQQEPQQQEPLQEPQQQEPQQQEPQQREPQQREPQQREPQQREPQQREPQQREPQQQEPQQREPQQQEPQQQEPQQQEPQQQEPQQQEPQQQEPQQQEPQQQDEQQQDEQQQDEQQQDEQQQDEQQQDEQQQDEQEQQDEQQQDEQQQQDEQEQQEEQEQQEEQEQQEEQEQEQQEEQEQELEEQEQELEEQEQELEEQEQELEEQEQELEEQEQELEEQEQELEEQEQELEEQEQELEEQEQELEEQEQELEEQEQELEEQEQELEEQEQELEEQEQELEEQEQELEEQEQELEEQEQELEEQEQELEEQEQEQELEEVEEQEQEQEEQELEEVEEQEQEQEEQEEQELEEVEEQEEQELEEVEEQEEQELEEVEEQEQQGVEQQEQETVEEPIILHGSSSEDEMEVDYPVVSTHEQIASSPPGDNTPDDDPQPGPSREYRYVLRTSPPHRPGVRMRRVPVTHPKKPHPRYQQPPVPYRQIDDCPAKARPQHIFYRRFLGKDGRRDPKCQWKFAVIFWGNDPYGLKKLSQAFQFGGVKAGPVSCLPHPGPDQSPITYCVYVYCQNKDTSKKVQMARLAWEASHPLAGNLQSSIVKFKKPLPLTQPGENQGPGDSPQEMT
# Beta-galactosidase, sequence (Q8VNN2 whole entry): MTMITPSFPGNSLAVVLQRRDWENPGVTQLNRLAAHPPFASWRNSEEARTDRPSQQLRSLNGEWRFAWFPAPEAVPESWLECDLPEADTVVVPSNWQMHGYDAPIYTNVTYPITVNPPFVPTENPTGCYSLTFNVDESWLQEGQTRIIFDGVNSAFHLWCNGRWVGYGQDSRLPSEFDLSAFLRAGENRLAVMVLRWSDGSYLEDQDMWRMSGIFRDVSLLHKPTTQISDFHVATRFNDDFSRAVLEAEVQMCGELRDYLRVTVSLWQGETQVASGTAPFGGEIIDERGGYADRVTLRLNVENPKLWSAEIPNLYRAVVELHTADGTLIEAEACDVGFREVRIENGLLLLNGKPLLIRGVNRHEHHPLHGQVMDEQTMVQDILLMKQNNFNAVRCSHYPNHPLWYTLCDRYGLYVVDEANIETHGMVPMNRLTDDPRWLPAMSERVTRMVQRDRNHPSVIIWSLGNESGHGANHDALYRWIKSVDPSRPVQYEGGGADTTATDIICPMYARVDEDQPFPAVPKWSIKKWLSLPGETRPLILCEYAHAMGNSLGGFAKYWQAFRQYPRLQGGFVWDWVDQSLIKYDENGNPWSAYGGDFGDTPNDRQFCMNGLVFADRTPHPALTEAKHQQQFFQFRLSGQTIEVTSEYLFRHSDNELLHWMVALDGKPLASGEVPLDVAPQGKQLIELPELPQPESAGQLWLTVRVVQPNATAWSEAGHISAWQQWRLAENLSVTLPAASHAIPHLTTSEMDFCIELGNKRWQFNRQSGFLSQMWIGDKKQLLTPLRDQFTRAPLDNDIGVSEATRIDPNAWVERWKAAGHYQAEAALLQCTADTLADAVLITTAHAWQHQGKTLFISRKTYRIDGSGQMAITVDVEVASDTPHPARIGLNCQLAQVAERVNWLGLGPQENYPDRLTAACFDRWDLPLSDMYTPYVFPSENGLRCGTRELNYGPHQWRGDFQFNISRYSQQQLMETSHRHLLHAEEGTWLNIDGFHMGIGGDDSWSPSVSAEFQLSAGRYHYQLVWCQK
structure (smiles),measurement,setting,value
CCOc1cc(CNC2CCCC2)cc(Cl)c1OCc1ccccc1,IC50,[1],> 32 µM (inactive)
same,EC50,[2],> 32 µM (inactive)
same,EC50,[3],> 32 µM (inactive)
same,IC50,[4],7.88 µM (active)
same,EC50,[5],> 31.5 µM (inactive)
same,IC50,[6],2.57 µM
same,EC50,[7],4.22 µM (active)
same,IC50,[8],< 3.13 µM (active)
COc1ccc(N=Nc2nc3cc(Br)c(Br)cc3n2C)c(OC)c1,AC50,[9],247 µM (active)
same,AC50,[10],> 52 µM (inactive)
Cc1cc(C)n(-c2nnc(NC(C)(C)C)nn2)n1,AC50,[11],62.6 µM (active)
CN(C)CCCNc1ncnc2c1c(-c1ccccc1)cn2-c1ccccc1,IC50,[12],23.9 µM (active)
same,CC50,[13],> 25 µM (active)
CCN(CC)c1ccc2cc(S(=O)(=O)c3ccc(Cl)cc3)c(=O)oc2c1,AC50,[14],0.246 µM (active)
same,AC50,[15],19.1 µM (active)
same,AC50,[9],10.8 µM (active)
same,AC50,[10],11.8 µM (active)
same,AC50,[16],35.7 µM (active)
CCN1CCN(CCNC(=O)c2ccc(/C=C3/Sc4ccccc4N(Cc4ccccc4C)C3=O)cc2)CC1,EC50,[17],6.6 µM (active)
same,EC50,[18],13.7 µM (active)
same,EC50,[19],> 150 µM (inconclusive)
same,EC50,[20],9.43 µM (active)
same,EC50,[21],> 133 µM (inconclusive)
Clc1ccc(Nc2ccccc2/N=c2\ssnc2Cl)cc1,IC50,[22],9.77 µM (active)
same,IC50,[23],> 100 µM (inactive)
Fc1ccc(/N=c2\ssnc2Cl)cc1,IC50,[22],11.6 µM (active)
same,IC50,[23],> 100 µM (inactive)
O=C(N/N=C/c1cccnc1)c1ccc(NC(=O)C(c2ccccc2)c2ccccc2)cc1,EC50,[17],> 150 µM (not active)
same,EC50,[18],0.949 µM (inconclusive)
same,EC50,[19],> 150 µM (not active)
same,EC50,[20],> 150 µM (not active)
same,EC50,[24],40.8 µM (inactive)
same,EC50,[21],> 66.7 µM (inactive)
same,AC50,[25],0.578 µM (active)
same,EC50,[26],> 99 µM (inactive)
CCN(CC)C(=O)C1CCCc2c1[nH]c1ccc(Cl)cc21 (stereo not drawn),IC50,[12],3.28 µM (active)
same,CC50,[13],> 25 µM (active)
CC1CCN(c2ccc3c(c2)S(=O)(=O)c2ccccc2C3=O)CC1,AC50,[11],39.7 µM (active)
